These results are taken from patent US11744896B2, “Compositions, use, and method for CDK2-PROTACs for cancer therapy and hearing loss” (Creighton University, priority 2020, dated 2023).

Entries after “also recorded” stand apart in the source; their conditions may differ. Where two headings read alike, the source gives them in different places.

The test system of series [1] is cisplatin-induced hearing loss. The settings on record: mouse; previous work; cited from earlier work.
For a further series, the system named is CDK1, CDK5, CDK7 or CDK9. Put plainly: Abundance of closely related CDKs in HEI-OC1 cells (immunoblot). The settings on record: 24 hours. It counts as cell-based. From the text: (§1) Specific bands were quantified using ImageJ (NIH).
In general terms: Immunoblotting shows a protein as a band on a membrane.

Series [2] concerns the target T1, CDK2 (Homo sapiens, UniProt P24941).
T1 construct: endogenous in cells; host or cells: HeLa
As to the kind of experiment: CDK2 degradation in HeLa cell line (immunoblot). The settings on record: HeLa cells incubated overnight, different concentrations. It counts as cell-based. The procedure: (§2) To test the efficacy of the synthesized AZD5438-PROTACs, HeLa cells were incubated overnight with different concentrations of AZD5438-PROTAC Examples 1, 2, 5, and 6.

Series [3] deals with CDK2 (Mus musculus, UniProt P97377). The settings on record: HEI-OC1 cells; for CDK2 degradation (immunoblot): 0.1 nM to 1 μM.
Protocol: HEI-OC1 cells were maintained in DMEM with 10% of Fetal bovine serum at 33° C. in a 10% CO2 atmosphere. […] Cells were harvested in RIPA buffer (NaCl 150 mM, Tris-HCl 50 mM, Nonidet-40 1%, Sodium deoxycholate 0.5%, SDS 0.1%, pH 7.4) containing protease (Sigma-Aldrich, MO P8340) and phosphatase inhibitors (ThermoFisher, CA, A32957) for immunoblot analysis.
Lysates were prepared after a 24 hours incubation and processed for Western blot analysis.
Membranes were blocked for 1 hour at room temperature with 3% milk followed by overnight incubation with the primary antibody in 3% milk. After several washes and the secondary incubation for 1 hour, membranes were developed employing an iBright FL1000 (ThermoFisher, CA). Immunoblots were stripped and probed for β-actin as the loading control. Specific bands were quantified using ImageJ (NIH).
The test system of series [4] is zebrafish lateral line neuromast hair cells. As to the kind of experiment: Zebrafish neuromast hair cell protection from cisplatin. It counts as in vivo. The settings on record: for protection of zebrafish lateral line neuromast hair cells from cisplatin toxicity: pre-incubation, then co-incubation with cisplatin for 6 hours. From the text: Four days post-fertilization (dpf) zebrafish (Danio rerio) larvae were obtained by pair mating of adult TuAB fish maintained at Creighton University by standard methods approved by the Institutional Animal Care and Use Committee.
Animals were immunostained for the hair cell marker, otoferlin (HCS-1, DSHB), and process for fluorescence microscopy. Otic, middle, and opercular neuromasts were identified, and hair cells were manually counted using a Zeiss AxioSkop 2 fluorescence microscope with a 40× oil objective.
(§3) Control animals were exposed to 0.1% DMSO in E3 media. Images were taken employing a Zeiss LSM 710 confocal microscope with a 63× oil objective.
For the screening of the effect of PROTAC-8, neuromast hair cell counts were performed manually, employing a Zeiss AxioSkop 2 fluorescence microscope with a 40× oil objective. Confocal imaging was performed using a Zeiss LSM 710 confocal laser scanning image system with a 63× oil objective. Images were captured at room temperature with automatically set sectioning. The acquired images were processed with ZEN black edition software. Z-stack images are presented as flat Z-projections.

The test system of series [5] is CDK2. As to the kind of experiment: CDK2 abundance in total zebrafish lysates (immunoblot). It counts as in vivo, zebrafish (Danio rerio). The settings on record: at concentrations of 0.1 nM and 1 μM. The protocol: (§4) The next day fish were transferred to a fresh solution of kainic acid 300 μM for 50 min, led recover in fresh E3 media for 2 hours, and fixed with 4% paraformaldehyde. Animals were processed for immunofluorescence analysis as described for the cisplatin treatments. After the 24 hours incubation with PROTAC-8 and before the incubation with the ototoxin, some fish were collected for immunoblot analysis of CDK2 abundance.
as §1
Further to find the effect of AZD5438-PROTAC 8 (Example 2) in protecting zebrafish hair cells from cisplatin otoxicity, zebrafish were pre-incubated with AZD5438-PROTAC 8 and then co-incubated with cisplatin for six hours. […] To check the degradation of CDK2 in zebrafish, fish were treated with AZD5438-PROTAC 8 in different concentration and total zebrafish lysates used for immunoblots (FIG. 12B). AZD5438-PROTAC 8 degrades CDK2 at concentrations of 0.1 nM and 1 μM (FIGS. 12B-12C).

The subject of the next series is neuromast hair cells. As to the kind of experiment: Zebrafish neuromast hair cell protection from kainic acid. The settings on record: kainic acid 300 μM for 50 min after pre-treatment. It counts as in vivo, zebrafish (Danio rerio). The procedure:
Four days post-fertilization (dpf) zebrafish (Danio rerio) larvae were obtained by pair mating of adult TuAB fish maintained at Creighton University by standard methods approved by the Institutional Animal Care and Use Committee. Experimental fish were maintained at 28.5° C. in E3 media (5 mM NaCl, 0.17 mM KCl, 0.33 mM CaCl2 and […] MgSO4, pH 7.2) until the day of the experiment.
as §4, §3
For the screening of the effect of PROTAC-8, neuromast hair cell counts were performed manually, employing a Zeiss AxioSkop 2 fluorescence microscope with a 40× oil objective. Confocal imaging was performed using a Zeiss LSM 710 confocal laser scanning image system with a 63× oil objective. Images were captured at room temperature with automatically set sectioning. The acquired images were processed with ZEN black edition software. […]

The subject of series [6] is zebrafish lateral line neuromast hair cells. The settings on record: zebrafish lateral line neuromasts, background statement, cited from earlier work.
The test system of the next series is cochlear explants. The settings on record: cited from earlier work.
For another series, the target named is T2, CDK1 (Homo sapiens, UniProt P06493).
T2 construct: endogenous in cells; host or cells: HeLa
T2 sequence (P06493 whole entry): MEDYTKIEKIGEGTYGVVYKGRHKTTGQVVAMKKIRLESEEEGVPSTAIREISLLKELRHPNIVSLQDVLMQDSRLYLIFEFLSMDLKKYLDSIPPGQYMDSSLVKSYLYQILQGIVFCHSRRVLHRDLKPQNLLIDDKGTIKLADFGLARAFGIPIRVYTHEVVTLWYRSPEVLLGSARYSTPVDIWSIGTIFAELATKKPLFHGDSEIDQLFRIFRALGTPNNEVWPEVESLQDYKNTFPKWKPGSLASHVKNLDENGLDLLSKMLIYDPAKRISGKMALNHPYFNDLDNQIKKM
As to the kind of experiment: CDK1 degradation in HeLa cell line (immunoblot). The settings on record: HeLa cells incubated overnight. It counts as cell-based. The procedure:
as §2

Another series has as its target T3, CDK9 (Homo sapiens, UniProt P50750).
T3 construct: endogenous in cells; host or cells: HeLa
Put plainly: CDK9 degradation in HeLa cell line (immunoblot). It counts as cell-based. The settings on record: HeLa cells incubated overnight. The procedure:
as §2

T3 sequence (P50750 whole entry): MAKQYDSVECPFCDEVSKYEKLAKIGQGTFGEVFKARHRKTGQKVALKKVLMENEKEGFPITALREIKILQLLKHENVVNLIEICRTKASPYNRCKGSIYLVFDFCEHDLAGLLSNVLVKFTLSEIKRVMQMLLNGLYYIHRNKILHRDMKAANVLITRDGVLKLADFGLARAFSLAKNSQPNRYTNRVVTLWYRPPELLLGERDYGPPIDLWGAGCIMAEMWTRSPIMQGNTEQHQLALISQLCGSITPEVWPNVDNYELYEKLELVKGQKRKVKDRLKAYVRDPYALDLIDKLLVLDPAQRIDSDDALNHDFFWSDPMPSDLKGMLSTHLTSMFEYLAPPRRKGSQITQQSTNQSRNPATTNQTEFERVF

With `O=C(NC1CCNCC1)c1n[nH]cc1NC(=O)c1c(Cl)cccc1Cl` [AT7519], in [1], the “protection against cisplatin-induced ototoxicity / hearing loss in vivo” value was “can prevent cisplatin-induced ototoxicity in vivo”.
On to `Cc1ncc(-c2ccnc(Nc3ccc(S(=O)(=O)CCCc4cn(CCOCCOCCOCCNc5cccc6c5C(=O)N(C5CCC(=O)NC5=O)C6=O)nn4)cc3)n2)n1C(C)C` (centres unmarked) [Example 1, 2-(2,6-dioxopiperidin-3-yl)-4-((2-(2-(2-(2-(4-(3-((4-((4-(1-isopropyl-2-methyl-1H-imidazol-5-yl)pyrimidin-2-yl)amino)phenyl)sulfonyl)propyl)-1H-1,2,3-triazol-1-yl)ethoxy)ethoxy)ethoxy)ethyl)amino)isoindoline-1,3-dione], for which the “degradation / abundance of closely related CDKs (CDK1, CDK5, CDK7, CDK9); selectivity” value (shortened to “degradation / abundance … selectivity”) in the series with CDK1, CDK5, CDK7 or CDK9 was “nor changes in the abundance of any of the closely related CDKs”. The “CDK2 degradation (immunoblot)” value on CDK2 [2] was “only the treatment with AZD5438-PROTAC-8 resulted in the degradation of CDK2”; on CDK2 [3] (24 hours), “did not show any CDK2 degradation”.
On to `Cc1ncsc1-c1ccc(CNC(=O)[C@@H]2C[C@@H](O)CN2C(=O)[C@@H](NC(=O)COCCn2cc(CO[C@H]3CC[C@H](NC(=O)c4n[nH]cc4NC(=O)c4c(F)cccc4F)CC3)nn2)C(C)(C)C)cc1` [Example 4, 4-(2,6-difluorobenzamido)-N-((1S,4r)-4-((1-(2-(2-(((S)-1-((2S,4R)-4-hydroxy-2-((4-(4-methylthiazol-5-yl)benzyl)carbamoyl)pyrrolidin-1-yl)-3,3-dimethyl-1-oxobutan-2-yl)amino)-2-oxoethoxy)ethyl)-1H-1,2,3-triazol-4-yl)methoxy)cyclohexyl)-1H-pyrazole-3-carboxamide], for which the “degradation / abundance … selectivity” value in the series on CDK1, CDK5, CDK7 or CDK9 was “nor changes in the abundance of any of the closely related CDKs”. Further, on CDK2 [3] (24 hours), the “CDK2 degradation (immunoblot)” value was “did not show any CDK2 degradation”.
For the compound `O=C1CCC(N2C(=O)c3cccc(NCCOCCOCCOCCn4cc(CO[C@H]5CC[C@H](NC(=O)c6n[nH]cc6NC(=O)c6c(F)cccc6F)CC5)nn4)c3C2=O)C(=O)N1` (some centres unmarked) [Example 3, 4-(2,6-difluorobenzamido)-N-((1r,4r)-4-((1-(2-(2-(2-(2-((2-(2,6-dioxopiperidin-3-yl)-1,3-dioxoisoindolin-4-yl)amino)ethoxy)ethoxy)ethoxy)ethyl)-1H-1,2,3-triazol-4-yl)methoxy)cyclohexyl)-1H-pyrazole-3-carboxamide], in the series on CDK1, CDK5, CDK7 or CDK9, the “degradation / abundance … selectivity” value was “nor changes in the abundance of any of the closely related CDKs”. Besides, the “CDK2 degradation (immunoblot)” value at CDK2 [3] (24 hours) is “did not show any CDK2 degradation”.
The term IC50 denotes the concentration needed to halve the response being measured. For `Cc1ncc(-c2ccnc(Nc3ccc(S(C)(=O)=O)cc3)n2)n1C(C)C` [AZD5438], the “protection of zebrafish lateral line neuromast hair cells from cisplatin toxicity” value in series [4] was “able to protect the zebrafish lateral line neuromasts from cisplatin and kainic acid damage”. The “CDK2 degradation in zebrafish” value in the series on CDK2 [5] is “without CDK2 degradation”. For the same compound, the “protection of neuromast hair cells from kainic acid damage” value in the series on neuromast hair cells was “able to protect the zebrafish lateral line neuromasts from cisplatin and kainic acid damage”. For the same compound, the results for the “protection of zebrafish lateral line against cisplatin ototoxicity (earlier studies)” value in series [6] and in series [6] (listed as ACD5438) were “hair cell loss was reduced” and “protects zebrafish lateral line against cisplatin ototoxicity”, respectively. Besides, the IC50 with cochlear explants (cochlear explants, cisplatin, read-out: IC50, protection against cisplatin toxicity in cochlear explants) was 5 nM. Moreover, the “protection against cisplatin-induced ototoxicity in mouse cochlear explants” value in the series on cochlear explants (previous study) was “best protection against cisplatin-induced ototoxicity”. Further, in [1], the “protection against cisplatin-induced ototoxicity / hearing loss in vivo” value is recorded as “best protection against cisplatin-induced ototoxicity; also recorded: fully protects against cisplatin-induce hearing loss in mice by local delivery; also recorded: can prevent cisplatin-induced ototoxicity in vivo; also recorded: hair cell loss was reduced”.
`Cc1ncsc1-c1ccc(CNC(=O)[C@@H]2C[C@@H](O)CN2C(=O)[C@@H](NC(=O)COCCn2cc(CCCS(=O)(=O)c3ccc(Nc4nccc(-c5cnc(C)n5C(C)C)n4)cc3)nn2)C(C)(C)C)cc1` [Example 2, (2S,4R)-4-hydroxy-1-((S)-2-(2-(2-(4-(3-((4-((4-(1-isopropyl-2-methyl-1H-imidazol-5-yl)pyrimidin-2-yl)amino)phenyl)sulfonyl)propyl)-1H-1,2,3-triazol-1-yl)ethoxy)acetamido)-3,3-dimethylbutanoyl)-N-(4-(4-methylthiazol-5-yl)benzyl)pyrrolidine-2-carboxamide]: in the series with CDK1, CDK5, CDK7 or CDK9, the “degradation / abundance … selectivity” value is reported as “selective for CDK2 degradation”. Further, in [4] (five-day post-fertilization fish, 1 hour pre-incubation, 6 hours co-incubation with cisplatin 400 μM), the “protection of zebrafish hair cells from cisplatin ototoxicity (FIG. 11A)” value was “protects zebrafish hair cells from cisplatin otoxicity”. The “protection of zebrafish lateral line neuromast hair cells from cisplatin toxicity” value was “significantly protects the zebrafish lateral line neuromasts from cisplatin toxicity” in series [4] (listed as AZD5438-PROTAC 8); “able to protect the zebrafish lateral line neuromasts from cisplatin and kainic acid damage” in series [4] (listed as PROTAC-8). Further, the “toxic effect of PROTAC alone on neuromast hair cells” value in [4] (zebrafish, without cisplatin (FIG. 11A)) is “did not show any toxic effect”. Besides, the “CDK2 degradation in zebrafish” value in the series with CDK2 [5] is given as “degrades CDK2”. Moreover, the “protection of neuromast hair cells from kainic acid damage” value in the series on neuromast hair cells is “able to protect the zebrafish lateral line neuromasts from cisplatin and kainic acid damage”. The “CDK2 degradation (immunoblot)” value on CDK2 [2] is “resulted in the degradation of CDK2”. Further, the “CDK1 degradation (immunoblot)” value on CDK1 was “No significant degradation”. In addition, the “CDK9 degradation (immunoblot)” value on CDK9 is “No significant degradation”. Moreover, the “CDK2 degradation on co-incubation with proteasome inhibitor MG-132” value at CDK2 [3] (100 nM PROTAC-8 and 300 nM MG-132, 24 hours) was “abolished CDK2 degradation”. At CDK2 [3] (24 hours, 100 nM concentration), the CDK2 degradation result is “around 50%”. Besides, on CDK2 [3] (read-out: half maximal degradation concentration (DC50), CDK2 degradation), the DC50 was > 1000 nM.
